Reference: patent US12534436B2, “Disubstituted adamantyl derivative or pharmaceutically acceptable salt thereof, and pharmaceutical composition for suppressing cancer growth comprising same as active ingredient” (ONECUREGEN CO., LTD., priority 2020, dated 2026)

Key:
Assay type in all cases: cell-based, human
[1] = tested on: HepG2 and A549 cells; assay: Cell proliferation by live cell imaging system IncuCyte ZOOM; conditions: IncuCyte ZOOM (FIG. 1C)
[2] = tested on: mitochondrial respiration; assay: Oxygen consumption rate (OCR), Oxytherm Clark-type electrode, HepG2 cells; conditions: 2 μM, 6 hours (FIG. 3A)
Experimental: (§1) Compounds that suppress mitochondrial respiration promote degradation of HIF-1α by increasing cellular oxygen content. Accordingly, it was investigated whether LW1564 (compound 21-3) affected mitochondrial respiration by measuring the oxygen consumption rate (OCR). Oxygen consumption was measured using an Oxytherm Clark-type electrode system (Hansatech, Norfolk, UK) (Chou, T. C. Theoretical basis, experimental design, and computerized simulation of synergism and antagonism in drug combination studies. Pharmacol. Rev. 58, 621-681 (2006)). HepG2 cells (2×10^7) were cultured with 2 μM LW1564 (compound 21-3) for 6 hours, collected, and then OCR was measured at 37° C. for 5 minutes with a thermoregulated controlled circulating system. For […] studies, digitonin-permeabilised HepG2 cells (2×10^7) were read on a detection device containing 2 ml of respiratory buffer (0.25 M sucrose, 2 mM KH2PO4, 5 mM MgCl2, 1 mM EDTA, 1 mM ADP, 20 mM MOPS, pH 7.4). The following substrates, which provide electrons to the components in the ETC, were then added: 5 mM sodium pyruvate, 5 mM sodium malate, 5 mM sodium succinate, 5 mM L-ascorbic acid and 0.2 mM N,N,N,N-tetra methyl-p-phenylenediamine (TMPD). Complex I, III and IV inhibitors (rotenone, antimycin A and KCN, respectively) were added to a final concentration of 1 μM.

[3] = tested on: HepG2 cells; assay: HepG2 cell proliferation at different glucose concentrations; conditions: low glucose (3 mM) versus high glucose (25 mM) medium (FIG. 5C)
Experimental: The glycolytic function is activated in many cancer cells. Accordingly, it was investigated whether LW1564 (compound 21-3) affected cancer cell proliferation according to glucose concentration. […] Next, in order to investigate the combined effect of LW1564 (compound 21-3), […] on the proliferation of HepG2 cells, Combination Index (CI) and isobologram analysis were performed. The CI value quantitatively represents the correlation between two drugs through GI50 analysis indicating the cell proliferation suppression concentration, and synergistic, additive and antagonistic effects are defined as CI<1, CI=1 and CI>1.

[4] = tested on: HIF-1 (HRE-dependent luciferase reporter); assay: HRE-luciferase assay, screening of HIF-1 inhibitors in HCT116 cells; conditions: Homo sapiens, HCT-116; HCT116 cells stably expressing HRE-dependent luciferase reporter, hypoxic conditions, 12 hours; means of three experiments
Experimental: HCT116 cells stably expressing the HRE-dependent luciferase reporter were treated with the disubstituted adamantyl derivative prepared in the above example under hypoxic conditions for 12 hours before measuring luciferase activity.
In HCT116 cells treated with disubstituted adamantyl derivatives, luciferase activity was investigated using HRE-luciferase assay. The HRE-luciferase reporter assay was performed as previously described using the luciferase assay system (Promega, Madison, WI, USA) according to the manufacturer's instructions (Naik, R. et al. Synthesis and Structure-Activity Relationship of (E)Phenoxyacrylic Amide Derivatives as Hypoxia-Inducible Factor (HIF) 1α Inhibitors. J. Med. Chem. 55, 10564-1057 (2012)). Luciferase activity was measured using a Victor X light luminescence reader (PerkinElmer, Boston, MA, USA).

[5] = tested on: HIF-1α; assay: Western blot of HIF-1α accumulation in HepG2 cells
[6] = tested on: mitochondrial ETC complex I; assay: Mitochondrial respiration assay, complex I (malate/pyruvate); conditions: HepG2 cells, 100 μM LW1564 (FIG. 4B)
Experimental: as §1, with “μM. […]” for “μM.”

## COc1cc2c(cc1OC)CN(C(=O)C13CC4CC(C1)CC(c1ccc(OCC(=O)N5CCN(Cc6ccc(C(F)(F)F)cc6)CC5)cc1)(C4)C3)CC2 [Compound 21c, 2-(4-(3-(6,7-Dimethoxy-1,2,3,4-tetrahydroisoquinoline-2-carbonyl)adamantan-1-yl)phenoxy)-1-(4-(4-(trifluoromethyl)benzyl)piperazin-1-yl) ethanone]
[1]
  proliferation inhibition, live cell imaging: induced proliferation inhibition of HepG2 and A549 cells in a dose-dependent manner
[2]
  oxygen consumption rate (OCR): significantly suppressed OCR
[3]
  cell proliferation suppression according to glucose concentration: stronger cell proliferation suppression efficacy in cells in a medium with a low glucose concentration (3 mM)
[4]
  IC50: 1100 nM
[5]; Western blot, cobalt chloride (FIG. 2B)
  HIF-1α protein amount in the presence of cobalt chloride: did not affect HIF-la protein amount
[5]; hypoxic conditions (FIG. 2B)
  accumulation of HIF-1α: suppressed the accumulation of HIF-1α in a concentration-dependent manner
[6]
  oxygen consumption by complex I: reduced oxygen consumption by complex I
